Key:
VR1 [1] = molecular target: T1, VR1 (Homo sapiens, UniProt Q8NER1); test: Calcium uptake assay, low pH (proton) agonist; type: cell-based; set-up: expressed in transfected cells; host or cells: T-REx HEK 293 (Invitrogen), pcDNA5/TO vector; details: HEK293; 0.3 μM compound; low pH (protons) as agonist; HEK 293 cells expressing hVR1; read-out: Low pH % Inhib. @ 0.3 μM
Target sequence in this assay (Q8NER1 whole entry): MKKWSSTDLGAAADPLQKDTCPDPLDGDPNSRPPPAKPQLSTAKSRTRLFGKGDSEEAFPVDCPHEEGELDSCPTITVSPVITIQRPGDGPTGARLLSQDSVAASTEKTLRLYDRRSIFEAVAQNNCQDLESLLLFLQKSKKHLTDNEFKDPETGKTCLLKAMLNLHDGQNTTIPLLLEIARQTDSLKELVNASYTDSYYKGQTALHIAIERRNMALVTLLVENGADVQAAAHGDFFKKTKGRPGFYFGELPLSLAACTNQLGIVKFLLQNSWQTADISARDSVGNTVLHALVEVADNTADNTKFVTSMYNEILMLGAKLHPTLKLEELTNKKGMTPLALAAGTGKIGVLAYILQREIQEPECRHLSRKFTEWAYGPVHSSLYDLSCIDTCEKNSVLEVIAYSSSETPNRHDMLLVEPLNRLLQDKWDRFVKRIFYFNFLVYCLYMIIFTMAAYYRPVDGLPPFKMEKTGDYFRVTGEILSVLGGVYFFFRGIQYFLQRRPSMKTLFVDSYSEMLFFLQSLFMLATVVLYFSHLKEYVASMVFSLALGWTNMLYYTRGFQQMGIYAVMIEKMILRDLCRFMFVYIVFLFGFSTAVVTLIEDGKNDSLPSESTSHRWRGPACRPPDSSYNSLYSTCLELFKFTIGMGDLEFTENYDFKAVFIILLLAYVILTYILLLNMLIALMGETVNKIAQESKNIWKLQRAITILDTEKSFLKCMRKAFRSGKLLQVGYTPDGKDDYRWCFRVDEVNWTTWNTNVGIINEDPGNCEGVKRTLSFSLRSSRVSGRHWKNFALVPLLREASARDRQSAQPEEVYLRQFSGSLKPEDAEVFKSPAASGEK

VR1 [2] = molecular target: T1, VR1; test: Acid stimulation assay (FDSS 6000); type: cell-based; details: final assay buffer pH5.8, 15 min pre-incubation
Protocol: The Acid-induced changes in the intracellular calcium concentration were monitored using FDSS 6000 (Hamamatsu Photonics, Japan), a fluorometric imaging system. The cell suspension in resting buffer (HBSS supplemented with 10 mM HEPES, pH 7.4) was pre-incubated with varying concentrations of the test compounds or resting buffer (buffer control) for 15 minutes at room temperature under dark conditions. The cells were automatically added the stimulating solution (HBSS supplemented with MES, final assay buffer pH5.8) by the FDSS 6000.
Target sequence in this assay (Q8NER1 whole entry, species assumed): as the sequence (Q8NER1 whole entry) above

[3] = Pharmacokinetic evaluation following intravenous and oral administration in rats; type: in vivo; details: male, Sprague-Dawley, plasma, rat; for clearance: non-compartmental analysis, read-out: In vivo Clearance (converted); for bioavailability: AUCinf (PO)/AUCinf (IV), dose normalized, PO 5 mg/kg, read-out: Oral Bioavailability F (%)
Protocol: Male Sprague-Dawley rats are acclimatized for at least 24 hours prior to experiment initiation. During acclimation period, all animals receive food and water ad libitum. However, food but not water is removed from the animal's cages at least 12 hours before initiation of the experiment. During the first 3 hours of experimentation, the animals receive only water ad libitum. At least three animal each are tested for intravenous and oral dosage. For intravenous formulation, compounds were dissolved (0.25 to 1 mg/mL) in a mixture of 3% dimethyl sulfoxide, 40% PEG 400 and the rest percentage of 40% Captisol in water (w/v). For oral formulation, compounds of this invention are dissolved (2 mg/mL) in a mixture of 5% of 10% Tween 80 in water (v/v) and 95% of 0.5% methyl cellulose in water (w/v). The animals are weighed before dosing. The determined body weight is used to calculate the dose volume for each animal.
Dose volume(mL/kg)=1 mg/kg/formulation concentration(mg/mL)
In instances where the formulation concentrations were less than 0.5 mg/mL, the dosing volume is about 2 mL/kg. PO rats are typically dosed through oral gavage at 2.5 mL/kg to achieve a dose level of 5 mg/kg. For IV dosing, blood samples are collected (using a pre-heparinized syringe) via the jugular vein catheter at 2, 5, 15, 30, 60, 120, 180, 300, 480, and 1440 minutes post dosing. For PO dosing, blood samples are collected (using a pre-heparinized syringe) via the jugular vein catheter before dosing and at 5, 15, 30, 60, 120, 180, 300, 480, and 1440 minutes post dosing. About 250 uL of blood is obtained at each time point from the animal. Equal volumes of 0.9% normal saline are replaced to prevent dehydration. The whole blood samples are maintained on ice until centrifugation. Blood samples are then centrifuged at 14,000 rpm for 10 minutes at 4° C. and the upper plasma layer transferred into a clean vial and stored at −80° C. The resulting plasma samples are then analyzed by liquid chromatography-tandem mass spectrometry. Following the measurement of plasma samples and dosing solutions, plasma concentration-time curve is plotted. Plasma exposure is calculated as the area under the concentration-time curve extrapolated to time infinite (AUCinf). The AUCinf is averaged and the oral bioavailability (% F) for individual animal is calculated as:
AUCinf (PO)/AUCinf (IV), normalized to their respective dose levels. The % F is reported as the mean % F of all animals dosed orally with the compound of the invention at the specified level (Table 6).
In vivo clearance in the rat was calculated by conducting a non-compartmental analysis of the pharmacokinetic profile using WinNonlin software.

Row | Structure (SMILES) | inhibition at 0.3 µM (VR1 [1]) [%] | IC50 (VR1 [2]) [nM] | clearance [3] [mL/min/kg] | bioavailability [3] [%]
1 | Cc1cc(/C=C/C(F)(F)F)ccc1C(=O)Nc1cccc2c1C[C@@H](O)CC2 (single isomer, unassigned) [Compound 313] | 106 | 14 |  | 
2 | Cc1cc(/C=C/C(F)(F)F)ccc1C(=O)Nc1ccc2c(c1)OCCN2 [Compound 118] |  |  | 17.7 | 
3 | O=C(Nc1ccc2c(c1)OCCN2)c1ccc(C#CC2CC2)nc1Cl [Compound 119] | 0 |  |  | 
4 | COc1cc(/C=C/C(F)(F)F)ccc1C(=O)Nc1ccc2c(c1)OCCN2 [Compound 122] |  |  | 61 | 
5 | COc1cc(/C=C/C(F)(F)F)ccc1C(=O)Nc1ccc2c(c1)OCCO2 [Compound 123] |  |  | 32 | 
6 | Cc1cc(C#CC2CC2)ccc1C(=O)Nc1ccc2c(c1)OCC(CO)N2 (stereo not shown) [Compound 124] |  |  | 20.7 | 67
7 | Cc1cc(C#CC2CCCC2)ccc1C(=O)Nc1ccc2c(c1)OCC(CO)N2 (stereo not shown) [Compound 125] |  |  | 33.7 | 17
8 | O=C(Nc1ccc2c(c1)OCC(CO)N2)c1ccc(C#CC2CCCC2)cc1F (stereo not shown) [Compound 126] |  |  | 44.9 | 35
9 | O=C(Nc1ccc2c(c1)OCC(CO)N2)c1ccc(C#CC2CC2)cc1F (stereo not shown) [Compound 127] |  |  | 30.9 | 66
10 | O=C(Nc1ccc2c(c1)OCC(CO)N2)c1c(F)cc(C#CC2CC2)cc1F (stereo not shown) [Compound 129] |  |  | 1.88 | 68
11 | Cc1cc(/C=C/C(F)(F)F)ccc1C(=O)Nc1ccc2c(c1)OCC(CO)N2 (stereo not shown) [Compound 131] |  |  | 21.6 | > 100
12 | O=C(Nc1ccc2c(c1)OCCN2)c1ccc(/C=C/C(F)(F)F)cc1F [Compound 134] |  |  | 85.1 | 63
13 | CC(C)(C)C#Cc1ccc(C(=O)Nc2ccc3c(c2)OCC(CO)N3)c(F)c1 (stereo not shown) [Compound 138] |  |  | 38.7 | 36
14 | O=C(Nc1ccc2c(c1)OCC(CO)N2)c1ccc(/C=C/C(F)(F)F)cc1F (stereo not shown) [Compound 144] |  |  | 31.5 | 68
15 | O=C(Nc1ccc2c(c1)OCC(CO)N2)c1ccc(C#CC2CC2)cc1Cl (stereo not shown) [Compound 156] | 102 |  |  | 
16 | O=C(Nc1ccc2c(c1)OCC(CO)N2)c1ccc(/C=C/C(F)(F)F)cc1Cl (stereo not shown) [Compound 157] |  |  | 15.6 | 83
17 | CC(C)(C)C#Cc1ccc(C(=O)Nc2ccc3c(c2)OCC(CO)N3)c(Cl)c1 (stereo not shown) [Compound 158] |  |  | 13 | 42
18 | CS(=O)(=O)c1cc(C#CC2CCCC2)ccc1C(=O)Nc1ccc2c(c1)OCCO2 [Compound 159] | 0 |  |  | 
19 | O=C(Nc1cccc2cnccc12)c1ccc(/C=C/C(F)(F)F)cc1F [Compound 160] |  |  | 85.4 | 22
20 | Cc1nc2cc(NC(=O)c3ccc(C#CC(C)(C)C)cc3C)ccc2s1 [Compound 162] |  |  | 44.3 | 2
21 | Cc1cc(C#CC(C)(C)C)ccc1C(=O)Nc1cccc2cnccc12 [Compound 163] |  |  | 110 | 53
22 | CC(C)(C)C#Cc1ccc(C(=O)Nc2cnc3ccccc3c2)c(Cl)c1 [Compound 164] |  |  | 33.5 | 1

Row | Structure (SMILES) | inhibition at 0.3 µM (VR1 [1]) [%] | IC50 (VR1 [2]) [nM] | clearance [3] [mL/min/kg] | bioavailability [3] [%]
23 | CC(C)(C)C#Cc1ccc(C(=O)Nc2ccc3c(c2)OC[C@H](CO)N3)c(F)c1 [Compound 172] |  |  | 41.2 | 76
24 | Cc1cc(C#CC(C)(C)C)ccc1C(=O)Nc1cnc2ccccc2c1 [Compound 181] |  |  | 41.8 | 1
25 | Cc1cc(C#CC(C)(C)C)ccc1C(=O)Nc1ccc2c(c1)OC[C@@H](CO)N2 [Compound 184] |  |  | 35.2 | 17
26 | Cc1nc2cc(NC(=O)c3ccc(/C=C/C(F)(F)F)cc3C)ccc2s1 [Compound 188] |  |  | 7.7 | 8
27 | Cc1cc(C#CC(C)(C)C)ccc1C(=O)Nc1cccc2c(Cl)nccc12 [Compound 199] | 67 |  |  | 
28 | Cc1cc(/C=C/C(F)(F)F)ccc1C(=O)Nc1ccc2cccnc2c1 [Compound 224] |  |  | 9.97 | > 100
29 | Cc1cc(/C=C/C(F)(F)F)ccc1C(=O)Nc1ccc2cc(CO)cnc2c1 [Compound 228] |  |  | 37.4 | 39
30 | Cc1cc(/C=C/C(F)(F)F)ccc1C(=O)Nc1cnc2[nH]ccc2c1 [Compound 230] |  |  | 15.3 | 17
31 | Cc1cc(/C=C/C(F)(F)F)ccc1C(=O)Nc1ccc2c(CO)n[nH]c2c1 [Compound 231] | 0 |  |  | 
32 | Cc1cc(/C=C/C(F)(F)F)ccc1C(=O)Nc1ccc2cc(C(=O)O)cnc2c1 [Compound 301] | 43 |  |  | 
33 | Cc1cc(/C=C/C(F)(F)F)ccc1C(=O)Nc1ccc2c(c1)C(=O)CCC2 [Compound 306, (E)-2-methyl-N-(8-oxo-5,6-7,8-tetrahydronaphthylen-2-yl)-4(3,3,3-trifluoroprop-1-enyl)benzamide] | 51 |  |  | 
34 | Cc1cc(/C=C/C(F)(F)F)ccc1C(=O)Nc1ccc2ccc(O)nc2n1 [Compound 311, (E)-N-(7-hydroxy-1,8-naphthyridin-2-yl)-2-methyl-4-(3,3,3-trifluoroprop-1-en-1)benzamide] | 20 |  |  | 
35 | Cc1cc(/C=C/C(F)(F)F)ccc1C(=O)Nc1cnc2c(c1)CC(O)CC2 (stereo not shown) [Compound 315, (E)-N-(6-hydroxy-5,6,7,8-tetrahydroquinolol-3-yl)-2-methyl-4-(3,3,3-trifluoroprop-1-enyl)benzamide] | 51.3 |  |  | 
36 | C/C(=C\c1ccc(C(=O)Nc2cnc3ccccc3c2)c(C)c1)C(F)(F)F [Compound 316] | 52 |  |  | 
37 | Cc1cc(/C=C/C(F)(F)F)ccc1C(=O)Nc1cnc2cc(C(C)O)cnc2c1 (stereo not shown) [Compound 320, (E)-N-(7-(1-hydroxyethyl)-1,5-naphthyridin-3-yl)-2-methyl-4-(3,33-trifluoroprop-1-enyl)benzamide] | 47 |  |  | 
38 | Cc1cc(/C=C/C(F)(F)F)ccc1C(=O)Nc1cnc2ncccc2c1 [Compound 321, (E)-2-methyl-N-(1,8-naphthyridin-3-yl)-4-(3,3,3-trifluoroprop-1-enyl)benzamide] | 41.5 |  |  | 
39 | CC(=O)N1CCCc2ccc(NC(=O)c3ccc(/C=C/C(F)(F)F)cc3C)cc21 [Compound 322, (E)-N-(1-acetyl-1,2,3,4-tetrahydroquinolin-7-yl)-2-methyl-4-(3,3,3-trifluoroprop-1-enyl)benzamide] | 42.7 |  |  | 
40 | CC(=O)c1cnc2cc(NC(=O)c3ccc(/C=C/C(F)(F)F)cc3C)cnc2c1 [Compound 324] | 0.74 |  |  | 
41 | Cc1cc(/C=C/C(F)(F)F)ccc1C(=O)Nc1cnc2cc(C(C)(C)O)cnc2c1 [Compound 326, (E)-N-(7-(2-hydroxypropan-2-yl)-1,5-naphthyridin-3-yl)-2-methyl-4-(3,3,3-trifluoroprop-1-enyl)benzamide] | 6.76 |  |  | 
42 | Cc1cc(/C=C/C(F)(F)F)ccc1C(=O)Nc1ccc2c(c1)N(C(=O)C1CC1)CC2 [Compound 402, (E)-N-(1-cyclopropanecarbonyl-2,3-dihydro-1H-indol-6-yl)-2-methyl-4-(3,3,3-trifluoro-prop-1-enyl)benzamide] | 0 |  |  | 
43 | Cc1cc(/C=C/C(F)(F)F)ccc1C(=O)Nc1ccc2c(c1)C(=O)N(CCO)C2=O [Compound 404, (E)-N-(2-(2-hydroxyethyl)-1,3-dioxoisoindolin-5-yl)-2-methyl-(3,3,3-trifluoroprop-1-enyl)benzamide] | 10 |  |  | 
44 | Cc1cc(/C=C/C(F)(F)F)ccc1C(=O)Nc1ccc2c(c1)N(C(=O)C(C)(C)C)CC2 [Compound 405, (E)-N-[1-(2,2-dimethyl-propionyl)-2,3-dihydro-1H-indol-6-yl]-2-methyl-4-(3,3,3-trifluoro-prop-1-enyl)benzamide] | 14 |  |  | 

Source: US20100004222A1, “Amide Derivatives as Ion-Channel Ligands and Pharmaceutical Compositions and Methods of Using the Same” (Renovis, Inc., priority 2006, published 2010)
